The test system of one data set is B6 mice. Kind of data set: Experimental allergic encephalitis (EAE) mouse model of multiple sclerosis, topical MC903. It counts as in vivo. The settings on record: topical daily starting 1 day before disease induction, compared to EtOH-treated mice. The protocol: FIG. 7 illustrates the clinical score difference among B6 mice topically treated with EtOH or MC903 daily for 2 weeks. The B6 mice were injected with myelin oligodendrocyte glycoprotein (MOG) peptide emulsified in complete Freund's adjuvant (CFA), then received Pertussis toxin intraperitoneally at the time of immunization and 48 h later. The mice were treated with topical EtOH or MC903 daily for 2 weeks. Mice were clinically scored on a five-point scale for signs of disease on the indicated days. N=8 mice/group. P=0.06 by two-way Analysis of variance (ANOVA). To test whether topical MC903 treatment was effective at treating multiple sclerosis (MS), the effect of MC903 in reducing clinical severity of a mouse model of MS known as experimental allergic encephalitis (EAE). Mice were topically treated daily with MC903 starting 1 day before disease induction. […] Thus, topical MC903 treatment might also be beneficial in the treatment of multiple sclerosis.

The subject of the next data set is TSLP. Kind of data set: Systemic TSLP induction by topical vitamin D3 analogs (ELISA). It counts as in vivo, mice. The settings on record: topical, ear skin bilaterally, 2 nmol/ear in ethanol, after 5 days of treatment.
The nature of data set [1]: Toxicity (morbidity and mortality) of topical vitamin D3 analogs in mice. It counts as in vivo. The settings on record: mouse, in vivo. The protocol: VDR stimulation of keratinocytes led to TSLP production, which in certain embodiments caused increase in Treg numbers. The effects of two vitamin D3 analogs (22-Oxacalcitriol, also known as 22-OXA, and EB1089) on TSLP production and Treg numbers were evaluated. Similarly to MC903, 22-OXA and EB1089 were applied to the ear skin bilaterally at a dose of 2 nmol/ear dissolved in ethanol. After 5 days of treatment, the mice were bled and serum TSLP levels were measured. […] To avoid the toxic effect, the dose of 22-OXA and EB1089 was lowered to a point where morbidity and mortality of mice was not observed (0.4 nmol/ear for 22-OXA; 0.04 nmol/ear for EB1089). At this dose, no increase in TSLP level was detected in 22-OXA-treated mice (FIG. 9B).

The next data set deals with Tregs. The experiment in a line: Dosing schedule of chronic topical MC903: circulating Tregs and atopic dermatitis. It counts as in vivo, mice. The text has this:
FIG. 11 comprises a graph illustrating data derived from topically treating mice with MC903 (2 nmol on one ear) 3 times/week every other week or with MC903 (2 nmol on one ear) 3 times/week every week (alternating ears every week) for 8 weeks. The % of Tregs out of CD4+ T cells in the blood before (baseline) and after treatment (Weeks 1, 4, 6, and 8) is illustrated. N=3 mice/group. * p<0.05 by Student t-test.
FIG. 12 comprises a graph illustrating data derived from topically treating mice with EtOH or MC903 (2 nmol) 3 times/week every other week for 10 weeks. The % of Tregs out of CD4+ T cells in the blood before (Day 0) and after treatment (Day 8 and Week 10) is illustrated. N=7 mice/group.
To test whether chronic MC903 treatment results in sustained increases in Treg numbers, mice were continuously treated with MC903 for more than 2 weeks.
To avoid this local toxic effect of MC903, alternating ears were treated every week (right ear for 1 week, followed by the left ear for 1 week, then back to the right ear for 1 week, and so on). […] Without wishing to be limited by any theory, the increase in Tregs appeared to be become refractory to the chronic MC903 treatment. Thus, the protocol was modified so that a 1-week rest period (pulse treatment) was given between weekly treatments.

The subject of data set [2] is Tregs and conventional CD4+ T cells (Tconvs). The experiment in a line: BrdU incorporation in splenic Tregs and conventional T cells. Format: in vivo, mice. The settings on record: spleen, Day 8, topical 2 nmol daily. An excerpt:
FIGS. 4A-4B comprise graphs illustrating data derived from topical treatment of B6 mice with EtOH or MC903 (2 nmol) daily and BrdU (intraperitoneal injection as a loading dose, followed by administration of drinking water) for the last 3 days. FIG. 4A illustrates Bromodeoxyuridine (BrdU) incorporation in Tregs on Day 8 in the spleen of B6 mice. FIG. 4B illustrates BrdU incorporation in conventional T cells (Tconvs) on Day 8 in the spleen of B6 mice.
Next, the kinetics of the systemic increase in Treg levels was investigated after topical MC903 treatment (treatment stopped on Day 7). The absolute number and the fraction of Tregs increased to a peak between days 6 and 9 and gradually declined thereafter in the spleen and the blood of MC903-treated mice (FIGS. 3A-3B). Circulating TSLP levels peaked at Day 6 and fell abruptly by Day 9 (FIG. 3C).
On the technique in general: Uptake of a labelled nucleoside into DNA is a usual measure of proliferation.

Another data set has as its system NOD mice. The experiment in a line: NOD mouse model of type I diabetes, topical MC903. It counts as in vivo. The text has this:
FIGS. 5A-5B comprise graphs illustrating data derived from topical treatment of NOD mice with EtOH or MC903 (2 nmol) 3 times/week every other week at Week 5 of age; treatment was stopped at Week 15 of age. FIG. 5A illustrates the percentage of Tregs out of CD4+ T cells in the blood of NOD mice before (Day 0) and after treatment (Day 8). […] The % of mice with diabetes is plotted over the age of the mice (N=7 mice/group-EtOH; N=8 mice/group-MC903).
To test whether topical treatment with MC903 would lead to amerilioration of inflammatory disorders, it was tested whether topical application of MC903 protected a mouse against type I diabetes (T1D), using a non-obese diabetes (NOD) mouse model of diabetes. NOD mice were treated 3 times a week with MC903 on alternating ears every week.

Where [3] appears, read: 3 days (every other day)/week every other week.

With `C=C1/C(=C\C=C2/CCC[C@]3(C)[C@@H]([C@H](C)/C=C/[C@@H](O)C4CC4)CC[C@@H]23)C[C@@H](O)C[C@@H]1O` [MC903, 26,27-cyclo-22-ene-1α,24S-dihydroxyvitamin D3], in the data set with B6 mice, the “clinical severity of EAE” value is recorded as “attenuated clinical severity”. Besides, the “serum TSLP levels” value in the data set with TSLP is given as “can induce TSLP production”. Moreover, the systemic toxicity result in data set [1] was “without any apparent systemic toxicity”. Further, in the data set with Tregs (setting [3]), the “atopic inflammation, pulse treatment” value was “atopic inflammation was avoided” and the “circulating Treg numbers, pulse treatment” value is on record as “increased over a 10 week period”. Also, the “Tregs at Day 8, alternating ear protocol” value with Tregs (alternating ears every week, Day 8) is “increased systemically”. The “circulating Tregs at Week 4 of treatment and beyond, alternating ear protocol” value in the data set with Tregs (alternating ears every week, no rest week) is given as “not increased”. Besides, the “atopic dermatitis with alternating ear protocol” value in the data set on Tregs (alternating ears treated every week) is reported as “minimal atopic dermatitis”. The “local toxicity with chronic once/day treatment of more than 1 week” value in the data set with Tregs (mouse, in vivo) is reported as “development of atopic dermatitis of the ear skin”. For the same molecule, in data set [2], the “BrdU incorporation by Tregs” value is given as “enhanced” and the “BrdU incorporation by conventional CD4+ T cells (Tconvs)” value is “no significant increase”. In the data set on NOD mice (Day 8 post-treatment, compared to vehicle), the “circulating Treg levels” value is “increased”. The “atopic dermatitis under treatment protocol” value with NOD mice (topical 3 times a week on alternating ears, 8 weeks) was “little to no evidence of atopic dermatitis”. For the same molecule, the “incidence of T1D (two consecutive blood glucose readings >250 mg/dl)” value in the data set with NOD mice (topical MC903 compared to vehicle) is listed as “significantly attenuated”.

For the origin of these results see patent publication US11752159B2, “Compositions and methods for suppressing or reducing systemic immune response in a subject” (THE TRUSTEES OF THE UNIVERSITY OF PENNSYLVANIA, priority 2015, dated 2023).
